Patent US9982188B2, “Near-infrared emitters” (MISSOURI STATE UNIVERSITY, priority 2015, dated 2018)
Entries after “also recorded” stand apart in the source; their conditions may differ.

Experiments:
[1] = related amide-cyanoximes, Ref [1, 2] / [1, 3]; cited from earlier work
[2] = potentiometric pH titration for pKa (ionization constant); type: physicochemical; conditions: isopropyl alcohol (ISA)/water mixture, aqueous pKa, 23° C., Yasuda-Shedlovsky extrapolation to zero ISA
Method: Ionization constants for the new cyanoxime compound 1 [H(DECO)] were determined using a Sirius Analytical Instruments automated titration station (Sussex, UK) equipped with a temperature-controlled bath. The titration was performed three times at 23° C. in an isopropyl alcohol (ISA) water mixture as described below. The weighed amount of compound 1 (3.08 mg) was placed into a titration vial. Sixteen milliliters of ISA water was delivered automatically to the vial. The pH of the solution was adjusted to 10 by adding 0.5 M KOH automatically. The titration with 0.5M HCl was performed automatically until a pH value of 2.5 was reached. To perform the second and third titrations, an additional volume of ISA and water (1 mL and 1 mL) was delivered automatically to the titration vial, respectively. The datasets for the three titrations were combined in the RefinementPro program to create a Multiset for pKa calculation. Also, these datasets were combined and extrapolated to a zero ISA concentration.
The aqueous pKa was calculated with a Yasuda-Shedlovsky extrapolation in the RefinementPro software.

[3] = solubility observations in water and organic solvents; type: physicochemical

CN(C)C(=O)/C(C#N)=N/O [H(DCO)]
pKa (pH titration) [1]: 5.52 ± 0.03

N#C/C(=N\O)C(N)=O [H(ACO)]
pKa (pH titration) [1]: 5.034 ± 0.002

CCN(CC)C(=O)/C(C#N)=N/O [compound 1, 2-cyano-2-oximino-N,N′-diethylaminoacetamide]
pKa [2]: 5.622 ± 0.005
solubility in organic solvents ([3]; solvent named in the value): soluble in most organic solvents except hydrocarbons
solubility in water ([3]; water): not well soluble in water; also recorded: insoluble in water
